Assay results published in BindingDB's records for patent US12383533 (Frost Biologic, 2025).

Target: Tubulin alpha-1A chain (Sus scrofa, UniProt P02550)
Assay: Not found
Source text: Not found

Chain of Tubulin alpha-1A chain (P02550 whole entry, looked up): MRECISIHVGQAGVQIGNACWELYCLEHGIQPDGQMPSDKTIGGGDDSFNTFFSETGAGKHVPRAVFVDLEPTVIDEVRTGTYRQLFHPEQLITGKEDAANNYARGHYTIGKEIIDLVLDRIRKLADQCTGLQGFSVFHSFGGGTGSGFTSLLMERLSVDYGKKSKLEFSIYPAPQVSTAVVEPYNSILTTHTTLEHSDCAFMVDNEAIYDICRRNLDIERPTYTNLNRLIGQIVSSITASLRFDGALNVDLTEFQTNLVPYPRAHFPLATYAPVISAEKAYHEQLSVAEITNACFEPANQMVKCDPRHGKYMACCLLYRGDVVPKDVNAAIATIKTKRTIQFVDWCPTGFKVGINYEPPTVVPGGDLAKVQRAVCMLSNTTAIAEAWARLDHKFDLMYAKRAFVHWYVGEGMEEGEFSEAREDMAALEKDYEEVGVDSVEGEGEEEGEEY

IC50: 1.98 µM
Compound: Cc1ncc(C(=O)Nc2ncc(-c3cccc(NC4CC4)c3)cc2F)cn1 [US12383533, Compound 68]
